This is an account of results in PubChem BioAssay (NCI).

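Protocol summary: plate cells (96-well), add compound at 5 concentrations, incubate 48 h, interpolate endpoints linearly. At the GI50, growth is halved. The concentration for full growth arrest is given as TGI.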

Experiment in all cases: NCI anticancer screen, dose series, 48 h
Assay [1] has as its system CCRF-CEM leukemia.
In assay [2] the test system is HOP-92 NSCLC.
Assay [3] relates to KM12 colon.
The subject of assay [4] is LOX IMVI melanoma.
The subject of assay [5] is M14 melanoma.
The subject of assay [6] is MCF7 breast.
For assay [7], the system named is MDA-MB-231 breast.
Assay [8] deals with OVCAR-5 ovarian.
Assay [9] has as its system RXF 393 renal.
Assay [10] relates to SR leukemia.

`O=C(N/N=C/c1cc([N+](=O)[O-])ccc1O)c1cccc2ccccc12`: the GI50 was 0.905 µM in assay [1]; 1.26 µM in assay [2]; 4.66 µM in [3]; 2.02 µM in assay [4]; 2.87 µM in assay [5]; 2.49 µM in assay [6]. Further, the GI50 in assay [7] was 7.6 µM; in [8], 6.2 µM; in [9] it was 4.14 µM; in [10], 1.81 µM. For the same compound, the TGI in [1] is 38.6 µM; in [2] it was 13 µM; in [3], greater than 100 µM; in [4], 53.4 µM; in assay [5], 68.4 µM; in assay [6], 13.4 µM. Moreover, the TGI in assay [7] is greater than 100 µM; in assay [8] it was greater than 100 µM; in assay [9], 35.1 µM; in assay [10], 16.1 µM.

Regarding `CCC(/C=C/c1ccccc1)=N\Nc1ccc(Cl)c(Cl)c1`, the TGI is greater than 100 µM in [1]; 58.2 µM in assay [2]; greater than 100 µM in [3]; greater than 100 µM in [4]; greater than 100 µM in assay [5]; greater than 100 µM in assay [6]. The TGI in [7] is 55.7 µM; in assay [8], greater than 100 µM; in [9], 58.4 µM; in [10] it was greater than 100 µM.

Regarding `CCN1C(=O)N(CC)C2C1NN=c1s/c(=C\c3cc4ccccc4[nH]3)c(=O)n12` (centres undefined), the GI50 in [1] is 0.0208 µM; in assay [2] it was 0.0681 µM; in assay [3] it was less than 0.012 µM; in assay [4], less than 0.01 µM; in assay [5] it was 0.0237 µM; in assay [6], less than 0.01 µM. For the same compound, the GI50 in assay [7] was 0.0118 µM; in assay [8], less than 0.0128 µM; in assay [9] it was less than 0.0187 µM; in assay [10], less than 0.01 µM. In addition, the TGI is greater than 100 µM in assay [1]; 6.28 µM in assay [2]; greater than 58.6 µM in assay [3]; greater than 100 µM in assay [4]; greater than 100 µM in [5]; 14.6 µM in [6]. The TGI was 27 µM in assay [7], greater than 100 µM in assay [8] and 11.6 µM in assay [9].

For `CC(C)(C#N)c1cc(C(=O)Nc2cc(Nc3ncccc3-c3ncnc4nc[nH]c34)ccc2F)cc(C(F)(F)F)c1`, the TGI in [1] was greater than 10 µM; in assay [2], 1.78 µM; in assay [3] it was greater than 2.09 µM; in assay [4], 2.41 µM; in [5], 0.862 µM; in assay [6] it was greater than 4.6 µM. Further, the TGI was greater than 2.86 µM in assay [8], greater than 2.89 µM in [9] and greater than 10 µM in assay [10]. The GI50 in [2] was 0.255 µM; in [3] it was 1.18 µM; in assay [4] it was 0.38 µM; in assay [5], 0.101 µM; in assay [7], 0.27 µM; in [8], 0.224 µM.

Regarding `CS(=O)(=O)Nc1ccc(N=Cc2c(O)[nH]c3ccccc23)cc1`, the GI50 is greater than 20 µM in assay [1]; greater than 25 µM in assay [2]; 1.2 µM in [3]; greater than 25 µM in assay [4]; greater than 25 µM in assay [5]; greater than 25 µM in [6]. Moreover, the GI50 in [7], in [8], in assay [9] and in assay [10] was greater than 25 µM throughout. For the same compound, the TGI in [1], in assay [2], in assay [3], in [4], in assay [5] and in assay [6] was greater than 25 µM each time. Further, the TGI in assay [7], in assay [8], in assay [9] and in [10] was greater than 25 µM in each case.

`COc1ccc(/C=C2\CCC(CN(C)C)C2=O)cc1OC` (centres undefined): the TGI was found to be 6.74 µM in assay [1]; 21 µM in assay [2]; 10.8 µM in assay [3]; 3.96 µM in [4]; 16.1 µM in assay [5]; 8.51 µM in assay [6]. In addition, the TGI in [7] stood at 7.71 µM; in assay [8], 29.8 µM; in assay [9], 5.16 µM; in assay [10] it was 9.26 µM.

For `COc1ccc2c(c1)C(C)Cc1c(Cl)nc(C)nc1N2C` (centres undefined), the GI50 was 3.17 µM in assay [1]; 3.95 µM in [2]; 0.789 µM in assay [3]; 3.12 µM in assay [4]; 1.34 µM in assay [5]; 0.791 µM in [6]. The GI50 in [7] is 4.34 µM; in [8], 5.91 µM; in assay [9] it was 2.78 µM; in [10], 2.44 µM. Further, the TGI in assay [1] was greater than 100 µM; in assay [2], 29.5 µM; in [3], 11.4 µM; in assay [4], 23.9 µM; in [5], 12.4 µM; in assay [6], 32.7 µM. The TGI in [7] was 34.9 µM; in assay [8] it was greater than 100 µM; in assay [9], 20.8 µM; in assay [10], greater than 100 µM.

As for `CCCCCCCOc1c(OC)cc(C2CC(=O)Nc3c2c(C)nn3-c2nc3ccccc3[nH]2)cc1OC` (centres undefined), the GI50 in [1] is 4.15 µM; in assay [2], 2.34 µM; in [3], 2.81 µM; in assay [4], 2.12 µM; in assay [5], 4.01 µM; in [6], 2.91 µM. Further, the GI50 was 1.98 µM in assay [7], 4.39 µM in assay [8], 1.96 µM in assay [9] and 3.08 µM in [10]. Moreover, the TGI in assay [1] is greater than 100 µM; in assay [2], 7.68 µM; in assay [3], 9.81 µM; in [4], 4.51 µM; in assay [5], greater than 100 µM; in [6], greater than 100 µM. Moreover, the TGI in assay [7] is 4.12 µM; in assay [8], greater than 100 µM; in [9] it was 5.02 µM; in [10] it was greater than 100 µM.

In the case of `O=C(c1cccnc1)c1cc(-c2ccccn2)c(=O)n2ccccc12`, the GI50 in [1], in assay [2], in assay [3], in [4], in [5] and in assay [6] was greater than 100 µM in each case. Further, the GI50 in assay [7], in assay [8], in assay [9] and in assay [10] was greater than 100 µM each time. The TGI in [1], in [2], in assay [3], in [4], in [5] and in assay [6] was greater than 100 µM throughout. The TGI in assay [7], in assay [8], in assay [9] and in [10] was greater than 100 µM throughout.
